From patent US20110306636A1, “OXAZOLE PYRIDINE DERIVATIVES USEFUL AS S1P1 RECEPTOR AGONISTS” (Merck Serono SA, priority 2009, published 2011)
Structures can show the parent of a compound that is named as a salt. Where two headings read alike, the source gives them in different places.

Experiments:
[1] = biological target: S1P1 (Homo sapiens, UniProt P21453); assay: Receptor binding assay, [33P]sphingosine 1-phosphate competition, S1P1
Description: (§1) Membranes Preparation: Membranes were prepared from CHO cells expressing S1P1 or S1P3 for use in ligand and 35S-GTPγS binding studies. Cells were suspended in 50 mM TRIS, pH 7.4, 2 mM EDTA, 250 mM Sucrose (buffer A) and 1× Complete protease inhibitor cocktail (Roche), and disrupted at 4° C. by N2 decompression using a cell disruption bomb (Parr Instrument). Following centrifugation at 1000 RPM for 10 min at 4° C., the supernatant was diluted (2×) in buffer A and centrifuged again at 19000 RPM for 75 min at 4° C. The pellet was then suspended in 10 mM HEPES, pH 7.4, 1 mM EDTA, 250 mM Sucrose (Buffer B), and 1× Complete EDTA-free protease inhibitor cocktail and homogenized using a potter. Membranes were flash frozen in liquid N2 and stored at −80° C.
(§2) Receptor binding assay: [33P]sphingosine 1-phosphate (3000 Ci/mmol; American Radiolabeled Chemicals, Inc.) was added to test compounds in 20% DMSO by competition. Membranes and WGA SPA beads (GE Healthcare) were added to give a final volume of 100 μl in 96-well plates or 50 μl in 384-well plates with assay concentrations of 30 pM or 15 pM [33P]sphingosine 1-phosphate (respectively for S1P1 or S1P3), 50 mM HEPES, pH 7.5, 5 mM MgCl2, 100 mM NaCl, 0.4% fatty acid-free BSA, 1-5 μg/well of proteins in 96-well plates vs 0.6-1 μg/well of proteins in 384-well plates and 100 μg/well of WGA SPA beads in 96-well plates vs 75 μg/well of WGA SPA beads in 384-well plates. Binding was performed for 60 min at RT on a shaker and bound radioactivity was measured on a PerkinElmer 1450 MicroBeta counter. Triplicate samples were averaged and normalized as purcentage of inhibition relative to total binding (only DMSO in well) and non specific binding (1000-fold excess of unlabeled S1P). Binding data were analyzed using the GraphPad Prism program or Genedata software.

[2] = biological target: S1P3 (Homo sapiens, UniProt Q99500); assay: Receptor binding assay, [33P]sphingosine 1-phosphate competition, S1P3
Description: as §1, §2

[3] = biological target: T1, human S1P1 Receptor fused to the green fluorescent protein (EGFP) (Homo sapiens, UniProt P21453); assay: Internalization of S1P1 in S1P1-U2OS cells by cell imaging analysis; format: cell-based; details: 1 hour incubation, 384-well
T1 construct: host or cells: U2OS (human bone osteosarcoma epithelial cells), CMV promoter, geneticin selection
Description: Cellular Functional Assays: Internalization of Sphingosine-1-Phosphate Receptor 1 (S1P1) in a Human Cell Line (U2OS) in a 384-Well Format Using a Cell Imaging Analysis.
The S1P1 internalization assay was performed in 384 well plates (Corning® 384 black with clear bottom 3712) using S1P1-U2OS cells from BioImage (C039A), a human epithelial cell line (Human Bone Osteosarcoma Epithelial Cells). These cells expressed the human S1P1 Receptor fused to the green fluorescent protein (EGFP). A standard CMV promoter (cytomegalovirus promoter) controls the expression of S1P1-EGFP and continuous expression was maintained by addition of geneticin to the culture medium.
S1P1 Receptor desensitization induced the internalization of the membrane-localized S1P1-EGFP fusion protein to endosomes, which can be monitored by cell imaging analysis.
The cells are plated in low serum medium (Dulbecco's Modified Eagle Medium (DMEM) with Glutamax-1 and high glucose, 1% Penicillin/Streptomycin, 1% Fetal Calf Serum (FCS), 0.5 mg/ml Geneticin) overnight.
The next day, S1P1-U2OS cells are incubated in 20 μl serum free medium (DMEM with Glutamax-1 and high glucose, 0.1% of fatty-acid free Bovin Serum Albumin (BSA), 10 mM, N′-2-Hydroxyethylpiperazine-N′-2 ethanesulphonic acid (HEPES) 1M) for 2 hours at 37° C./5% CO2.
The cells are then treated with 4 μl compounds/agonists (6×/3% DMSO) for a total volume of 24 μl, and plates are incubated for 1 hour at 37° C./5% CO2.
S1P1-U2OS cells are fixed with 25 μl Paraformaldehyde 8% and stained with Hoechst 33345 dye (1:1000) for 20 minutes.
They were then washed 3 times with Phosphate Buffered Saline (PBS) and plates are sealed.
The internalization of the receptor S1P1-EGFP is measured on Cellomics by calculating the “spot count per object” (“object” corresponds to nuclear and “spot” corresponds to S1P1-EGFP receptor). Internalization data were observed thanks to vHCS View and analyzed using Genedata® software.

[4] = 96 well-plate, read-out: S1P1 binding IC50 (M) (96 well-plate)
[5] = 384 well-plate, read-out: S1P1 binding IC50 (M) (384 well-plate)
[6] = 96 well-plate, read-out: S1P3 binding IC50 (M) (96 well-plate)
[7] = 384 well-plate, read-out: S1P3 binding IC50 (M) (384 well-plate)

Chain of S1P1 (P21453 whole entry, species assumed): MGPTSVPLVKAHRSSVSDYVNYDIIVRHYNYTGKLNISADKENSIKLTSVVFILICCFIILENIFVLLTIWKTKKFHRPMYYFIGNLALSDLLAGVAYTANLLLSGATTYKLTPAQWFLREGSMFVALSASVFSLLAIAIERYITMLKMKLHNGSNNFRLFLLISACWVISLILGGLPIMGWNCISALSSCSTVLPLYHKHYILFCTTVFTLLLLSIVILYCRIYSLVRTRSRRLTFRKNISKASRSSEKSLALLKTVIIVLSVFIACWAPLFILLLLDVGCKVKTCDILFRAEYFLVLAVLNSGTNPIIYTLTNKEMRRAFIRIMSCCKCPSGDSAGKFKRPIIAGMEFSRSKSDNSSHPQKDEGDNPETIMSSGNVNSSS
Chain of S1P3 (Q99500 whole entry, species assumed): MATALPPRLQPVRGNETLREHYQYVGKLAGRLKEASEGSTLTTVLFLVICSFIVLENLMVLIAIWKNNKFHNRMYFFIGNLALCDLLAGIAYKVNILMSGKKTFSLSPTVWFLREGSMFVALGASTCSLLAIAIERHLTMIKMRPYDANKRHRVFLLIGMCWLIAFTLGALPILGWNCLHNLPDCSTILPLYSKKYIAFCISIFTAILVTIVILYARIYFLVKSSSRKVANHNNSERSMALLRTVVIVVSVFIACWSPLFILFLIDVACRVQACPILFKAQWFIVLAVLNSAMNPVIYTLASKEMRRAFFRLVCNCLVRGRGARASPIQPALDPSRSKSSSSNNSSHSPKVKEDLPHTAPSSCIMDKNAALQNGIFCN
T1 sequence (P21453 with tags, fused parts or gaps): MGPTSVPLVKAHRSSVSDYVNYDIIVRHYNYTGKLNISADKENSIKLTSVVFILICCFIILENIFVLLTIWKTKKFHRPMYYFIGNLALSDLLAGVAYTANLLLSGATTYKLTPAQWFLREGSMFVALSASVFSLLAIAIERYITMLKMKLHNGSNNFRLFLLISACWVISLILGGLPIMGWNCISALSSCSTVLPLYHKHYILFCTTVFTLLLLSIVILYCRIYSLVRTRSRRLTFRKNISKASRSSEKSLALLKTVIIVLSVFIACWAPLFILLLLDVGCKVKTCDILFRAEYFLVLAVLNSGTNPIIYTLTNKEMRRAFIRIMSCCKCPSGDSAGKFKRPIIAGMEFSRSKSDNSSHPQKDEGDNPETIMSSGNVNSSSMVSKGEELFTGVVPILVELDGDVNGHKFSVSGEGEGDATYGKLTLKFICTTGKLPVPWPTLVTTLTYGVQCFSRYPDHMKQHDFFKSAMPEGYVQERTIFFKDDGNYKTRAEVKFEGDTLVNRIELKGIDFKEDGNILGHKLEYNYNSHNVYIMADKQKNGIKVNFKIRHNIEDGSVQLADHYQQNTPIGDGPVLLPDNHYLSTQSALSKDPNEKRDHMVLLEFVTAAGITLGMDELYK

SMILES	IC50 [1, 4] [M]	IC50 [1, 5] [M]	IC50 [2, 6] [M]	IC50 [2, 7] [M]	EC50 [3] [nM]
COCc1cc(-c2nc(-c3ccc(N)nc3)no2)ccc1-c1ccccc1F [Example 52, 5-{5-[2′-fluoro-2-(methoxymethyl)biphenyl-4-yl]-1,2,4-oxadiazol-3-yl}pyridin-2-amine]	1.65e-09	1.82e-08	3.62e-06	3.25e-06	23.1
COCc1cc(-c2nc(-c3cnc(NCCC(=O)O)c(C)c3)no2)ccc1-c1ccccc1F [Example 53, N-(5-{5-[2′-fluoro-2-(methoxymethyl)biphenyl-4-yl]-1,2,4-oxadiazol-3-yl}-3-methylpyridin-2-yl)-beta-alanine, hydrochloride salt]	6.38e-09	–	3.1e-06	–	99.2
Cc1ccccc1-c1ccc(-c2nc(-c3cnc(NCCC(=O)O)c(C)c3)no2)cc1C(F)(F)F [Example 59, N-(3-methyl-5-{5-[2′-methyl-2-(trifluoromethyl)biphenyl-4-yl]-1,2,4-oxadiazol-3-yl}pyridin-2-yl)-beta-alanine, hydrochloride salt]	1.04e-08	4.56e-08	2e-05	–	156
COCc1cc(-c2nc(-c3cnc(Cl)c(F)c3)no2)ccc1-c1ccccc1C [Example 60, 2-chloro-3-fluoro-5-{5-[2-(methoxymethyl)-2′-methylbiphenyl-4-yl]-1,2,4-oxadiazol-3-yl}pyridine]	2.83e-09	4.34e-09	6.53e-06	3e-06	19.5
O=C(O)CCNc1ncc(-c2noc(-c3ccc(-c4ccccc4F)c(C(F)(F)F)c3)n2)cc1Cl [Example 63, N-(3-chloro-5-{5-[2′-fluoro-2-(trifluoromethyl)biphenyl-4-yl]-1,2,4-oxadiazol-3-yl}pyridin-2-yl)-beta-alanine]	5.4e-09	1.73e-08	3.87e-06	–	50
CC1CCCCN1c1ccc(-c2nc(-c3ccnc(CN(C)CC(=O)O)c3)no2)cc1C(F)(F)F (stereo not shown) [Example 66, 2-(methyl((4-(5-(4-(2-methylpiperidin-1-yl)-3-(trifluoromethyl)phenyl)-1,2,4-oxadiazol-3-yl)pyridin-2-yl)methyl)amino)acetic acid]	3.3e-09	8.68e-09	7.44e-07	1.38e-06	14.5
CC1CCCCN1c1ccc(-c2nc(-c3ccnc(CN(C)CCC(=O)O)c3)no2)cc1C(F)(F)F (stereo not shown) [Example 67, 3-(methyl((4-(5-(4-(2-methylpiperidin-1-yl)-3-(trifluoromethyl)phenyl)-1,2,4-oxadiazol-3-yl)pyridin-2-yl)methyl)amino)propanoic acid]	1.2e-09	–	1.41e-07	4.68e-07	14.2
COCc1cc(-c2nc(-c3ccnc(CN(C)CC(=O)O)c3)no2)ccc1-c1ccccc1C [Example 68, 2-(((4-(5-(2-(methoxymethyl)-2′-methylbiphenyl-4-yl)-1,2,4-oxadiazol-3-yl)pyridin-2-yl)methyl)(methyl)amino)acetic acid]	1.79e-09	1.18e-08	8.55e-07	1.08e-06	10.5
COCc1cc(-c2nc(-c3ccnc(CNCC(=O)O)c3)no2)ccc1-c1ccccc1C [Example 69, 2-((4-(5-(2-(methoxymethyl)-2′-methylbiphenyl-4-yl)-1,2,4-oxadiazol-3-yl)pyridin-2-yl)methylamino)acetic acid]	2.6e-09	3.19e-09	1.7e-07	1.62e-07	9.2
CCOc1cc(-c2nc(-c3cnc(NCCC(=O)O)c(Cl)c3)no2)ccc1-c1ccccc1C(F)(F)F [Example 71, N-(3-chloro-5-{5-[2-ethoxy-2′-(trifluoromethyl)biphenyl-4-yl]-1,2,4-oxadiazol-3-yl}pyridin-2-yl)-beta-alanine, hydrochloride salt]	–	3.4e-09	5.75e-06	8.92e-06	21.3

The remaining lines, values ahead:

IC50 [1, 4] [M]	IC50 [1, 5] [M]	IC50 [2, 6] [M]	IC50 [2, 7] [M]	EC50 [3] [nM]	SMILES
2.01e-09	–	9.32e-07	–	16.4	COCc1cc(-c2nc(-c3cnc(NCCCC(=O)O)c(Cl)c3)no2)ccc1-c1ccccc1F [Example 54, 4-[(3-chloro-5-{5-[2′-fluoro-2-(methoxymethyl)biphenyl-4-yl]-1,2,4-oxadiazol-3-yl}pyridin-2-yl)amino]butanoic acid, hydrochloride salt]
6.02e-09	–	2.82e-06	3.39e-06	64.5	COCc1cc(-c2nc(-c3cnc(NCCCC(=O)O)c(C)c3)no2)ccc1-c1ccccc1F [Example 55, 4-[(5-{5-[2′-fluoro-2-(methoxymethyl)biphenyl-4-yl]-1,2,4-oxadiazol-3-yl}-3-methylpyridin-2-yl)amino]butanoic acid, hydrochloride salt]
1.71e-09	4.77e-09	2.09e-06	1.71e-06	40.3	COCc1cc(-c2nc(-c3cnc(NCCCC(=O)O)c(Cl)c3)no2)ccc1-c1ccccc1C [Example 56, 4-[(3-chloro-5-{5-[2-(methoxymethyl)-2′-methylbiphenyl-4-yl]-1,2,4-oxadiazol-3-yl}pyridin-2-yl)amino]butanoic acid, hydrochloride salt]
5.6e-09	–	7.44e-06	8.67e-06	81.4	COCc1cc(-c2nc(-c3cnc(NCCCC(=O)O)c(C)c3)no2)ccc1-c1ccccc1C [Example 57, 4-[(5-{5-[2-(methoxymethyl)-2′-methylbiphenyl-4-yl]-1,2,4-oxadiazol-3-yl}-3-methylpyridin-2-yl)amino]butanoic acid, hydrochloride salt]
2.94e-09	2.48e-08	9.3e-06	5.26e-06	45.5	COCc1cc(-c2nc(-c3cnc(NCCC(=O)O)c(C)c3)no2)ccc1-c1ccccc1C [Example 58, N-(5-{5-[2-(methoxymethyl)-2′-methylbiphenyl-4-yl]-1,2,4-oxadiazol-3-yl}-3-methylpyridin-2-yl)-beta-alanine, hydrochloride salt]
2.07e-09	7.95e-09	1.6e-06	2.41e-06	16.1	CCOc1cc(-c2nc(-c3cnc(NCCC(=O)O)c(Cl)c3)no2)ccc1-c1ccccc1C [Example 65, N-{3-chloro-5-[5-(2-ethoxy-2′-methylbiphenyl-4-yl)-1,2,4-oxadiazol-3-yl]pyridin-2-yl}-beta-alanine, hydrochloride salt]
–	8.69e-09	–	3.78e-06	23.3	COCc1cc(-c2nc(-c3cnc(NCCC(=O)O)c(Cl)c3)no2)ccc1-c1cccc(F)c1C [Example 72, N-(3-chloro-5-{5-[3′-fluoro-2-(methoxymethyl)-2′-methylbiphenyl-4-yl]-1,2,4-oxadiazol-3-yl}pyridin-2-yl)-beta-alanine, hydrochloride salt]
